Organism: Rattus norvegicus
Test: DrugMatrix - Regimen: Daily Repeat
Assay type: toxicity, organism-based, Sprague-Dawley
Set-up: regimen Daily Repeat, gender Male, age 6-8 weeks
Conditions: in vivo, po, route oral GAVAGE, vehicle .5 % CMC; for ABSOLUTE BASOPHIL / ABSOLUTE EOSINOPHIL / ABSOLUTE LYMPHOCYTE / ABSOLUTE MONOCYTE / ABSOLUTE SEGMENTED NEUTROPHIL / BASOPHIL / EOSINOPHIL / ERYTHROCYTE COUNT / HEMATOCRIT / HEMOGLOBIN / LEUKOCYTE COUNT / LYMPHOCYTE / MEAN CORPUSCULAR HEMOGLOBIN / MEAN CORPUSCULAR HEMOGLOBIN CONCENTRATION / MEAN CORPUSCULAR VOLUME / MONOCYTE / NEUTROPHIL / NUCLEATED RED BLOOD CELLS / PLATELET COUNT: tissue Blood; for ALANINE AMINOTRANSFERASE / ALBUMIN / ALKALINE PHOSPHATASE / ASPARTATE AMINOTRANSFERASE / BLOOD UREA NITROGEN / CARBON DIOXIDE / CHLORIDE / CHOLESTEROL / CREATINE PHOSPHOKINASE / CREATININE / GLUCOSE / LACTATE DEHYDROGENASE / LIPASE / PHOSPHORUS / POTASSIUM / SODIUM / TOTAL BILIRUBIN / TOTAL PROTEIN / URIC ACID: tissue Plasma
[1] = 2000 mg/kg, 120 h, dose level High, time 5 day
[2] = […], 72 h, dose 9.5 mg/Kg, dose level Low, time 3 day
[3] = […], 120 h, dose 9.5 mg/Kg, dose level Low, time 5 day

## O=C1Nc2ccc(Cl)cc2C(c2ccccc2Cl)=NC1O (centres undefined) [LORAZEPAM]
[1]
  ABSOLUTE BASOPHIL: 0 CELLS/uL
  ABSOLUTE EOSINOPHIL: 0 CELLS/uL
  ABSOLUTE LYMPHOCYTE: 9298.5 CELLS/uL
  ABSOLUTE MONOCYTE: 148 CELLS/uL
  ABSOLUTE SEGMENTED NEUTROPHIL: 903.5 CELLS/uL
  BASOPHIL: 0%
  EOSINOPHIL: 0%
  ERYTHROCYTE COUNT: 6.25 x10E6/uL
  HEMATOCRIT: 36.95%
  HEMOGLOBIN: 14.95 G/DL
  LEUKOCYTE COUNT: 10.35 x10E3/uL
  LYMPHOCYTE: 89%
  MEAN CORPUSCULAR HEMOGLOBIN: 23.95 pg
  MEAN CORPUSCULAR HEMOGLOBIN CONCENTRATION: 40.5 G/DL
  MEAN CORPUSCULAR VOLUME: 59.1 fL
  MONOCYTE: 1.5%
  NEUTROPHIL: 9.5%
  NUCLEATED RED BLOOD CELLS: 0 /100WBC
  PLATELET COUNT: 1267 x10E3/uL
  ALANINE AMINOTRANSFERASE: 64.5 u/L
  ALBUMIN: 4.15 G/DL
  ALKALINE PHOSPHATASE: 283.5 u/L
  ASPARTATE AMINOTRANSFERASE: 92 u/L
  BLOOD UREA NITROGEN: 21.5 mg/dL
  CARBON DIOXIDE: 29.5 mmol/L
  CHLORIDE: 100.5 MEQ/L
  CHOLESTEROL: 76.5 mg/dL
  CREATINE PHOSPHOKINASE: 814 u/L
  CREATININE: 0.18 mg/dL
  GLUCOSE: 150.5 mg/dL
  LACTATE DEHYDROGENASE: 206 u/L
  LIPASE: 17.5 u/L
  PHOSPHORUS: 8.55 mg/dL
  POTASSIUM: 5.62 MEQ/L
  SODIUM: 145.4 MEQ/L
  TOTAL BILIRUBIN: 0.1 mg/dL
  TOTAL PROTEIN: 6.2 G/DL
  URIC ACID: 0.65 mg/dL
[2]
  ABSOLUTE BASOPHIL: 0 CELLS/uL
  ABSOLUTE EOSINOPHIL: 223.33 CELLS/uL
  ABSOLUTE LYMPHOCYTE: 14276.33 CELLS/uL
  ABSOLUTE MONOCYTE: 155.67 CELLS/uL
  ABSOLUTE SEGMENTED NEUTROPHIL: 1244.67 CELLS/uL
  BASOPHIL: 0%
  EOSINOPHIL: 1.33%
  ERYTHROCYTE COUNT: 5.67 x10E6/uL
  HEMATOCRIT: 36.03%
  HEMOGLOBIN: 13.93 G/DL
  LEUKOCYTE COUNT: 15.9 x10E3/uL
  LYMPHOCYTE: 89.67%
  MEAN CORPUSCULAR HEMOGLOBIN: 24.57 pg
  MEAN CORPUSCULAR HEMOGLOBIN CONCENTRATION: 38.67 G/DL
  MEAN CORPUSCULAR VOLUME: 63.57 fL
  MONOCYTE: 1%
  NEUTROPHIL: 8%
  NUCLEATED RED BLOOD CELLS: 0 /100WBC
  PLATELET COUNT: 1298 x10E3/uL
  ALANINE AMINOTRANSFERASE: 70 u/L
  ALBUMIN: 4.33 G/DL
  ALKALINE PHOSPHATASE: 451.67 u/L
  ASPARTATE AMINOTRANSFERASE: 99.67 u/L
  BLOOD UREA NITROGEN: 17.33 mg/dL
  CARBON DIOXIDE: 24 mmol/L
  CHLORIDE: 102.67 MEQ/L
  CHOLESTEROL: 65.67 mg/dL
  CREATINE PHOSPHOKINASE: 485.67 u/L
  CREATININE: 0.22 mg/dL
  GLUCOSE: 158 mg/dL
  LACTATE DEHYDROGENASE: 594 u/L
  LIPASE: 11 u/L
  PHOSPHORUS: 10.17 mg/dL
  POTASSIUM: 6.03 MEQ/L
  SODIUM: 142.63 MEQ/L
  TOTAL BILIRUBIN: 0.13 mg/dL
  TOTAL PROTEIN: 5.93 G/DL
  URIC ACID: 1.43 mg/dL
[3]
  ABSOLUTE BASOPHIL: 0 CELLS/uL
  ABSOLUTE EOSINOPHIL: 0 CELLS/uL
  ABSOLUTE LYMPHOCYTE: 12357 CELLS/uL
  ABSOLUTE MONOCYTE: 82 CELLS/uL
  ABSOLUTE SEGMENTED NEUTROPHIL: 461 CELLS/uL
  BASOPHIL: 0%
  EOSINOPHIL: 0%
  ERYTHROCYTE COUNT: 6.11 x10E6/uL
  HEMATOCRIT: 37.87%
  HEMOGLOBIN: 14.63 G/DL
  LEUKOCYTE COUNT: 12.9 x10E3/uL
  LYMPHOCYTE: 95.67%
  MEAN CORPUSCULAR HEMOGLOBIN: 23.97 pg
  MEAN CORPUSCULAR HEMOGLOBIN CONCENTRATION: 38.63 G/DL
  MEAN CORPUSCULAR VOLUME: 62.07 fL
  MONOCYTE: 0.67%
  NEUTROPHIL: 3.67%
  NUCLEATED RED BLOOD CELLS: 0 /100WBC
  PLATELET COUNT: 1313 x10E3/uL
  ALANINE AMINOTRANSFERASE: 62 u/L
  ALBUMIN: 4.13 G/DL
  ALKALINE PHOSPHATASE: 373.33 u/L
  ASPARTATE AMINOTRANSFERASE: 87.67 u/L
  BLOOD UREA NITROGEN: 12 mg/dL
  CARBON DIOXIDE: 25 mmol/L
  CHLORIDE: 104.33 MEQ/L
  CHOLESTEROL: 26.67 mg/dL
  CREATINE PHOSPHOKINASE: 550.33 u/L
  CREATININE: 0.15 mg/dL
  GLUCOSE: 136.33 mg/dL
  LACTATE DEHYDROGENASE: 527.67 u/L
  LIPASE: 9.33 u/L
  PHOSPHORUS: 10.97 mg/dL
  POTASSIUM: 6.04 MEQ/L
  SODIUM: 143.63 MEQ/L
  TOTAL BILIRUBIN: 0.13 mg/dL
  TOTAL PROTEIN: 5.8 G/DL
  URIC ACID: 1.67 mg/dL
